According to patent US6143509A, “Prostate specific antigen peptides and uses thereof” (Abbott Laboratories, priority 1996, dated 2000):

Tests used:
[1] = tested on: mAb 2E9; assay: Competitive immunoassay: inhibition of mAb binding to PSA by synthetic peptides; settings: competitive immunoassay section C-II-A; FIG. 2A
Protocol: (§1) (A). Two-site combinations of capture antibody and Europium chelate (Eu)-labeled antibody was used to determine the inhibition of mAbs binding to PSA by the synthetic peptides derived from PSA. Briefly, free PSA (0.05 pmol/well, Wallac, O Y, Turku, Finland) in 0.100 mL of Delfia® buffer (Wallac, O Y) (i.e., a blocking buffer containing 50 mM Tris-HCl (pH 7.75), 0.9% NaCl, 0.05% Na-azide, 0.01% Tween 40, 0.05% bovine-gammaglobulin, 20 μM DTPA, 0.5% BSA, 10 μg/mL native mouse IgG, 5 μg/mL denatured mouse IgG and 20 μg/mL cherry red) was added to microtiter wells coated with the various anti-PSA antibodies being used for capture (1-2 μg/well of antibody) and incubated for 1 hour at 25° C. (Free or total antibodies may be used.) After washing with Delfia® wash solution, peptides (62,500-1,000,000 molar excess to PSA) in 25 mL Delfia® buffer were added together with the Europium chelate-labeled anti-PSA antibody (0.05 pmol), and incubation was continued for 1 hour at 25°0 C. After another four washings, the amount of bound Eu-labeled antibody was determined with time-resolved fluorometry previously described (Pettersson et al., Clin. Chem. 41:1480-88 (1995) & Hemmilia et al., Anal. Biochem. 137:335-43 (1984)).

[2] = tested on: mAb 5A10 (specific for free PSA); assay: as above; settings: competitive immunoassay section C-II-A; FIG. 2A
Protocol: as §1

[3] = tested on: mAb 9B10 (specific for free PSA); assay: as above
Protocol: as §1

[4] = tested on: mAb H68; assay: as above; settings: competitive immunoassay section C-II-A; FIG. 2A
Protocol: as §1

[5] = tested on: mAb 2E9; assay: Indirect ELISA, binding specificity of mAb 2E9; settings: FIG. 2B
Protocol: (§2) An indirect ELISA assay was used to determine the reactivity and specificity of anti-PSA mAbs and pAbs. For the assay, 96 well microtiter plates (Costar, Cambridge, MA) were coated with PSA (0.5 micrograms/well, Abbott Laboratories, in house product, code# 91969, purified from seminal fluid) or peptides (0.1 mg/well) in 0.1 M carbonate-bicarbonate buffer (pH 9.0) overnight at 4° C. The plates were blocked with 1% BSA in PBS buffer (0.008 M sodium phosphate, 0.002M potassium phosphate, 0.14 M sodium chloride and 0.01M potassium chloride, pH 7.4) for 1 hour, then anti-PSA mAbs or pAbs (100 microliters/well) at varying dilutions were added. After incubation for 1 hour at 25° C., the wells were washed with PBS buffer containing 0.5% Tween 20, then 100 microliters/well of alkaline phosphatase-conjugated antibody (goat anti-mouse IgG or goat anti-rabbit IgG--from Pierce, Rockford, IL) at 5000 fold dilution was added and incubation continued for 1-2 hr at 25° C. After washing, 100 microliters/well of p-nitrophenyl phosphate substrate (Pierce, Rockford, Ill.) was added and the absorbance was measured at 405 nm using an automated microtiter plate reader (Molecular Devices Corp. Menlo Oaks, Calif.).

[6] = tested on: rabbit anti-ABT6 antiserum; assay: Indirect ELISA, reactivity and specificity of anti-ABT6 antiserum; type: binding; settings: FIG. 5
Protocol: as §2, with “After incubation for 1 hour at 25° C., the wells were washed with PBS buffer containing 0.5% Tween 20, then 100 microliters/well of alkaline phosphatase-conjugated antibody (goat anti-mouse IgG or goat anti-rabbit IgG--from Pierce, Rockford, IL) at 5000 fold dilution was added and incubation continued for 1-2 hr at 25° C.” left out, “Calif.). […]” for “Calif.).”
The reactivity and specificity of antiserum anti-ABT6 was evaluated by estimating the relative binding affinities (Wang et al., Urology 39:1-5 (1982)) for PSA, PSA peptide ABT6 and hK2 peptide hK2b as described in Example I. The indirect ELISA format described in Section C-I of Example 1 was used for these studies and the data are shown in FIG. 5.

[7] = tested on: known anti-PSA monoclonal antibodies; assay: Binding to known anti-PSA monoclonal antibodies (summary); settings: summary statement
Protocol: as §2, §1
(§3) (B). […] After another four washings, 100 μl/well of p-nitrophenyl phosphate substrate (Pierce Chemical Co., Rockford, Ill.) was added and the absorbance was measured at 405 nm using an automated microtiter plate reader.

[8] = Immunization of rabbits with peptide coupled to KLH; type: in vivo; settings: FIG. 5 / FIG. 6
Description: Antiserum was elicited by immunizing rabbits with PSA peptide ABT6 coupled to the carrier protein KLH (keyhole limpet hemocyanin) at Bio-Synthesis, Inc. (Lewisville, Tex.) using standard commercially available techniques.
Anti-ABT4 antiserum was elicited by immunizing two rabbits with PSA peptide ABT4 coupled to the carrier protein KLH at Bio-Synthesis, Inc.(Lewisville,Tex.).

[9] = tested on: mAb H164; assay: Indirect ELISA, binding specificity of mAb H164; settings: FIG. 3C
Protocol: as §2

[10] = tested on: rabbit anti-ABT4 antiserum; assay: Indirect ELISA, reactivity and specificity of anti-ABT4 antiserum; type: binding; settings: FIG. 6, relative affinity ABT4 >PSA >hK2a
Protocol: as §2, with “After incubation for 1 hour at 25° C., the wells were washed with PBS buffer containing 0.5% Tween 20, then 100 microliters/well of alkaline phosphatase-conjugated antibody (goat anti-mouse IgG or goat anti-rabbit IgG--from Pierce, Rockford, IL) at 5000 fold dilution was added and incubation continued for 1-2 hr at 25° C.” left out, “Calif.). […]” for “Calif.).”
The reactivity and specificity of Anti-ABT4 antiserum were evaluated by estimating the relative binding affinities (Wang et al., […] 39:1-5 (1982)) for PSA, PSA peptide ABT4 and hK2 peptide (hK2a) as described in Example I. The indirect ELISA assay format described in Section C-I of Example I was used for these studies and the data are shown in FIG. 6. […]

[11] = tested on: mAb 30:5; assay: Competitive immunoassay: inhibition of mAb binding to PSA by synthetic peptides; settings: inhibition studies
Protocol: as §1

[12] = tested on: mAb 6:3; assay: as above; settings: inhibition studies
Protocol: as §1

[13] = tested on: goat anti-PSA antiserum; assay: Direct ELISA with alkaline phosphatase-labeled goat anti-PSA antiserum; type: binding; settings: peptides coated on microtiter plates; FIG. 4
Description: Synthetic peptides were also screened by a direct ELISA assay format which utilized a goat anti-PSA antiserum conjugated to alkaline phosphatase. In particular, peptides were coated on microtiter plates and detected by enzyme-labelled anti-PSA polyclonal antibodies. The goat anti-PSA antiserum was produced by immunization with free PSA. […] In addition to those epitopes identified by mAbs as described above, two new epitopes, ABT2 and ABT7, were identified by the anti-PSA antiserum.

[14] = tested on: mAb 2C1; assay: Competitive immunoassay: inhibition of total PSA specific mAb binding to PSA; settings: FIG. 3A
Protocol: as §1, with “(Free or total antibodies may be used.) After washing with Delfia® wash solution, peptides (62,500-1,000,000 molar excess to PSA) in 25 mL Delfia® buffer were added together with the Europium chelate-labeled anti-PSA antibody (0.05 pmol), and incubation was continued for 1 hour at 25°0 C.” left out
as §3

[15] = tested on: mAb H164; assay: as above; settings: FIG. 3A
Protocol: as §1, with “(Free or total antibodies may be used.) After washing with Delfia® wash solution, peptides (62,500-1,000,000 molar excess to PSA) in 25 mL Delfia® buffer were added together with the Europium chelate-labeled anti-PSA antibody (0.05 pmol), and incubation was continued for 1 hour at 25°0 C.” left out
as §3

Substance	binding of mAb 2E9 to coated peptide or PSA [5]	binding of anti-ABT6 antiserum (relative binding affinity) [6]	binding to several known anti-PSA monoclonal antibodies [7]	immunogenicity (ability to elicit antibodies) [8]	binding of mAb H164 to coated peptide or PSA [9]	binding of anti-ABT4 antiserum (relative binding affinity) [10]	further results
CMSLLKNRFLRPGDDSC [ABT6]	specific binding	high affinity	specific binding	immunogenic			binding to mAb 2E9 [1]: selectively bound; binding to mAb 5A10 [2]: specific binding; binding to mAb 9B10 ([3]; competitive immunoassay section C-II-A, FIG. 2A): specific binding; binding to mAb H68 [4]: selectively bound
PSA: Prostate specific antigen, Abbott Laboratories in house product, purified from seminal fluid	specific binding	high affinity			bound specifically	binds	
CNRFLRPGDDSSC [ABT1, synthetic PSA peptide; short version of ABT6]			specific binding				inhibition of mAb 30:5 [11]: 50%; inhibition of mAb 6:3 [12]: 23%; inhibition of mAb 9B10 ([3]; inhibition studies): 40%
CWGSIEPEEFLTPKKLC [ABT2, synthetic PSA peptide]			specific binding				epitope identified by goat anti-PSA antiserum [13]: identified
CLLGRHSLFHPEDTGQC [ABT4]			specific binding	immunogenic	bound specifically	binds	inhibition of PSA binding to mAb 2C1 [14]: 80%; inhibition of PSA binding to mAb H164 [15]: 90%
